Species on record: Rattus norvegicus
Assay: DrugMatrix - Regimen: Daily Repeat
Format: toxicity, organism-based, Sprague-Dawley
Set-up: regimen Daily Repeat, gender Male, age 6-8 weeks
Details: in vivo, po, route oral GAVAGE, […]; for URIC ACID / ALANINE AMINOTRANSFERASE / ALBUMIN / ALKALINE PHOSPHATASE / ASPARTATE AMINOTRANSFERASE / BLOOD UREA NITROGEN / CARBON DIOXIDE / CHLORIDE / CHOLESTEROL / CREATINE PHOSPHOKINASE / CREATININE / GLUCOSE / LACTATE DEHYDROGENASE / LIPASE / PHOSPHORUS / POTASSIUM / SODIUM / TOTAL BILIRUBIN / TOTAL PROTEIN: tissue Plasma; for ABSOLUTE BASOPHIL / ABSOLUTE EOSINOPHIL / ABSOLUTE LYMPHOCYTE / ABSOLUTE MONOCYTE / ABSOLUTE SEGMENTED NEUTROPHIL / BASOPHIL / EOSINOPHIL / ERYTHROCYTE COUNT / HEMATOCRIT / HEMOGLOBIN / LEUKOCYTE COUNT / LYMPHOCYTE / MEAN CORPUSCULAR HEMOGLOBIN / MEAN CORPUSCULAR HEMOGLOBIN CONCENTRATION / MONOCYTE / NEUTROPHIL / NUCLEATED RED BLOOD CELLS / PLATELET COUNT: tissue Blood
[1] = 0.2 mg/kg, 120 h, dose level Low, time 5 day
[2] = 19 mg/kg, 72 h, dose level High, time 3 day
[3] = 19 mg/kg, 120 h, dose level High, time 5 day

CCOC(=O)C1=C(COCCN)NC(C)=C(C(=O)OC)C1c1ccccc1Cl (stereo unspecified) [AMLODIPINE]
URIC ACID (0.2 mg/kg, 72 h, dose level Low, time 3 day): 1.4 mg/dL
ABSOLUTE BASOPHIL [1]: 0 CELLS/uL
ABSOLUTE EOSINOPHIL [1]: 54 CELLS/uL
ABSOLUTE LYMPHOCYTE [1]: 12693.33 CELLS/uL
ABSOLUTE MONOCYTE [1]: 54 CELLS/uL
ABSOLUTE SEGMENTED NEUTROPHIL [1]: 1132 CELLS/uL
BASOPHIL [1]: 0%
EOSINOPHIL [1]: 0.33%
ERYTHROCYTE COUNT [1]: 5.55 x10E6/uL
HEMATOCRIT [1]: 34.53%
HEMOGLOBIN [1]: 13.3 G/DL
LEUKOCYTE COUNT [1]: 13.93 x10E3/uL
LYMPHOCYTE [1]: 91.33%
MEAN CORPUSCULAR HEMOGLOBIN [1]: 23.97 pg
MEAN CORPUSCULAR HEMOGLOBIN CONCENTRATION [1]: 38.5 G/DL
MONOCYTE [1]: 0.33%
NEUTROPHIL [1]: 8%
NUCLEATED RED BLOOD CELLS [1]: 0.33 /100WBC
PLATELET COUNT [1]: 1051.33 x10E3/uL
ALANINE AMINOTRANSFERASE [1]: 66 u/L
ALBUMIN [1]: 4.1 G/DL
ALKALINE PHOSPHATASE [1]: 350 u/L
ASPARTATE AMINOTRANSFERASE [1]: 82 u/L
BLOOD UREA NITROGEN [1]: 16 mg/dL
CARBON DIOXIDE [1]: 30.33 mmol/L
CHLORIDE [1]: 99.33 MEQ/L
CHOLESTEROL [1]: 64.33 mg/dL
CREATINE PHOSPHOKINASE [1]: 209.67 u/L
CREATININE [1]: 0.14 mg/dL
GLUCOSE [1]: 156.33 mg/dL
LACTATE DEHYDROGENASE [1]: 144.67 u/L
LIPASE [1]: 19.33 u/L
PHOSPHORUS [1]: 10.4 mg/dL
POTASSIUM [1]: 5.81 MEQ/L
SODIUM [1]: 144.97 MEQ/L
TOTAL BILIRUBIN [1]: 0.1 mg/dL
TOTAL PROTEIN [1]: 5.67 G/DL
URIC ACID [1]: 0.87 mg/dL
ABSOLUTE BASOPHIL [2]: 0 CELLS/uL
ABSOLUTE EOSINOPHIL [2]: 0 CELLS/uL
ABSOLUTE LYMPHOCYTE [2]: 15467 CELLS/uL
ABSOLUTE MONOCYTE [2]: 0 CELLS/uL
ABSOLUTE SEGMENTED NEUTROPHIL [2]: 1533 CELLS/uL
BASOPHIL [2]: 0%
EOSINOPHIL [2]: 0%
ERYTHROCYTE COUNT [2]: 5.69 x10E6/uL
HEMATOCRIT [2]: 35.43%
HEMOGLOBIN [2]: 13.97 G/DL
LEUKOCYTE COUNT [2]: 17 x10E3/uL
LYMPHOCYTE [2]: 90.67%
MEAN CORPUSCULAR HEMOGLOBIN [2]: 24.53 pg
MEAN CORPUSCULAR HEMOGLOBIN CONCENTRATION [2]: 39.4 G/DL
MONOCYTE [2]: 0%
NEUTROPHIL [2]: 9.33%
NUCLEATED RED BLOOD CELLS [2]: 0 /100WBC
PLATELET COUNT [2]: 1141 x10E3/uL
ALANINE AMINOTRANSFERASE [2]: 69.67 u/L
ALBUMIN [2]: 3.77 G/DL
ALKALINE PHOSPHATASE [2]: 410 u/L
ASPARTATE AMINOTRANSFERASE [2]: 81.67 u/L
BLOOD UREA NITROGEN [2]: 14 mg/dL
CARBON DIOXIDE [2]: 29.67 mmol/L
CHLORIDE [2]: 101.67 MEQ/L
CHOLESTEROL [2]: 68 mg/dL
CREATINE PHOSPHOKINASE [2]: 240.33 u/L
CREATININE [2]: 0.16 mg/dL
GLUCOSE [2]: 161 mg/dL
LACTATE DEHYDROGENASE [2]: 103.33 u/L
LIPASE [2]: 10 u/L
PHOSPHORUS [2]: 10.33 mg/dL
SODIUM [2]: 141.27 MEQ/L
TOTAL BILIRUBIN [2]: 0.23 mg/dL
TOTAL PROTEIN [2]: 5.6 G/DL
URIC ACID [2]: 1.43 mg/dL
ABSOLUTE BASOPHIL [3]: 0 CELLS/uL
ABSOLUTE EOSINOPHIL [3]: 0 CELLS/uL
ABSOLUTE LYMPHOCYTE [3]: 11777 CELLS/uL
ABSOLUTE MONOCYTE [3]: 51 CELLS/uL
ABSOLUTE SEGMENTED NEUTROPHIL [3]: 838.67 CELLS/uL
BASOPHIL [3]: 0%
EOSINOPHIL [3]: 0%
ERYTHROCYTE COUNT [3]: 5.63 x10E6/uL
HEMATOCRIT [3]: 34.73%
HEMOGLOBIN [3]: 13.7 G/DL
LEUKOCYTE COUNT [3]: 12.67 x10E3/uL
LYMPHOCYTE [3]: 92.67%
MEAN CORPUSCULAR HEMOGLOBIN [3]: 24.33 pg
MEAN CORPUSCULAR HEMOGLOBIN CONCENTRATION [3]: 39.47 G/DL
MONOCYTE [3]: 0.33%
NEUTROPHIL [3]: 7%
NUCLEATED RED BLOOD CELLS [3]: 0 /100WBC
PLATELET COUNT [3]: 1057.67 x10E3/uL
ALANINE AMINOTRANSFERASE [3]: 95 u/L
ALBUMIN [3]: 4 G/DL
ALKALINE PHOSPHATASE [3]: 359.33 u/L
ASPARTATE AMINOTRANSFERASE [3]: 100 u/L
BLOOD UREA NITROGEN [3]: 16 mg/dL
CARBON DIOXIDE [3]: 34.67 mmol/L
CHLORIDE [3]: 101.5 MEQ/L
CHOLESTEROL [3]: 68.33 mg/dL
CREATINE PHOSPHOKINASE [3]: 177.67 u/L
CREATININE [3]: 0.13 mg/dL
GLUCOSE [3]: 165 mg/dL
LACTATE DEHYDROGENASE [3]: 96.67 u/L
LIPASE [3]: 12 u/L
PHOSPHORUS [3]: 8.93 mg/dL
POTASSIUM [3]: 5.34 MEQ/L
SODIUM [3]: 145.05 MEQ/L
TOTAL BILIRUBIN [3]: 0.1 mg/dL
TOTAL PROTEIN [3]: 5.9 G/DL
URIC ACID [3]: 0.37 mg/dL
